# Experimental data published in publication PMC12655172, “Borylated 5-Membered Ring Iminosugars: Synthesis and Biological Evaluation for Glycosidase Inhibition and Anticancer Properties for Application in Boron Neutron Capture Therapy (BNCT)—Part 2” (Pharmaceuticals, 2025).
# Like-named read-outs stand apart in the source and are kept apart here.
# Legend:
# [1] = test system: T1, trehalase (porcine kidney); assay: Glycosidase inhibition (Table 2 panel); assay type: biochemical
# T1 construct: purchased Sigma-Aldrich; host or cells: porcine kidney
# [2] = test system: α-D-glucosidase (human lysosome); assay: Glycosidase inhibition (Table 2 panel); assay type: biochemical; conditions: at 100 μM
# [3] = test system: α-D-glucosidase (rat intestinal maltase); assay: Glycosidase inhibition (Table 2 panel); assay type: biochemical
# [4] = test system: T2, α-L-fucosidase (bovine kidney); assay: Glycosidase inhibition (Table 2 panel); assay type: biochemical; conditions: at 1000 μM
# T2 construct: purchased Sigma-Aldrich; host or cells: bovine kidney
# Method in brief: (§1)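 Commercial enzymes assayed with para-nitrophenyl glycoside substrate […] at each enzyme's optimum pH, reaction stopped with Na2CO3 […]. Released para-nitrophenol read at 400 nm; […].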
# [5] = test system: α-L-rhamnosidase (P. decumbens); assay: Glycosidase inhibition (Table 2 panel); assay type: biochemical
# Method in brief: as §1
# [6] = biological target: T3, β-D-galactosidase (bovine liver) (Bos taurus, UniProt F1MNT6); assay: Glycosidase inhibition (Table 2 panel); assay type: biochemical
# T3 sequence (F1MNT6 1-469): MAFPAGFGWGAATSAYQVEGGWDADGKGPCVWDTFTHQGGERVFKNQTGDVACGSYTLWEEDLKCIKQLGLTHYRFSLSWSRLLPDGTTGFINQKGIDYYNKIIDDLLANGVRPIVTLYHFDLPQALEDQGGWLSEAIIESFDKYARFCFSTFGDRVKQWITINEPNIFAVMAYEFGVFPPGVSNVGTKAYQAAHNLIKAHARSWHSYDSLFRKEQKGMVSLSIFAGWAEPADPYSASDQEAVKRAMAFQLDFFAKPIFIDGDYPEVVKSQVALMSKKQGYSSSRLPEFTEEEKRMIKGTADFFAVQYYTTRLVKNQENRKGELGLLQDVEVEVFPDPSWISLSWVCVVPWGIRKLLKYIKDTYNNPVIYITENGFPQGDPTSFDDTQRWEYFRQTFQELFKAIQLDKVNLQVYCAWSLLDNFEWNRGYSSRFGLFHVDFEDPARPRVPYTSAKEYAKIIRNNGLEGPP
# Method in brief: as §1
# [7] = biological target: T4, β-D-glucosidase (bovine liver) (Bos taurus, UniProt F1MNT6); assay: Glycosidase inhibition (Table 2 panel); assay type: biochemical
# T4 sequence (F1MNT6 1-469): T3 sequence (F1MNT6 1-469)
# Method in brief: as §1
# [8] = test system: β-D-glucuronidase (bovine liver); assay: Glycosidase inhibition (Table 2 panel); assay type: biochemical
# Method in brief: as §1
# [9] = test system: β-D-glucosidase (human lysosome); assay: Glycosidase inhibition (Table 2 panel); assay type: biochemical; conditions: at 100 μM
# [10] = test system: β-D-galactosidase (E. coli); assay: Glycosidase inhibition (Table 2 panel); assay type: biochemical; conditions: at 100 μM
# [11] = test system: β-D-glucanase (T. Longibrachiatum); assay: Glycosidase inhibition (Table 2 panel); assay type: biochemical; conditions: at 100 μM
# α-D-glucosidase (yeast) = biological target: T5, α-D-glucosidase (yeast) (Saccharomyces cerevisiae, UniProt P53341); assay: Glycosidase inhibition (Table 3 panel); assay type: biochemical; conditions: 1 mg/mL aqueous solution, run in water; for inhibition at 1000 µg/mL (stock): read-out: Percentage inhibition α-D-Glucosidase Yeast
# T5 construct: purchased Sigma-Aldrich
# T5 sequence (P53341 whole entry): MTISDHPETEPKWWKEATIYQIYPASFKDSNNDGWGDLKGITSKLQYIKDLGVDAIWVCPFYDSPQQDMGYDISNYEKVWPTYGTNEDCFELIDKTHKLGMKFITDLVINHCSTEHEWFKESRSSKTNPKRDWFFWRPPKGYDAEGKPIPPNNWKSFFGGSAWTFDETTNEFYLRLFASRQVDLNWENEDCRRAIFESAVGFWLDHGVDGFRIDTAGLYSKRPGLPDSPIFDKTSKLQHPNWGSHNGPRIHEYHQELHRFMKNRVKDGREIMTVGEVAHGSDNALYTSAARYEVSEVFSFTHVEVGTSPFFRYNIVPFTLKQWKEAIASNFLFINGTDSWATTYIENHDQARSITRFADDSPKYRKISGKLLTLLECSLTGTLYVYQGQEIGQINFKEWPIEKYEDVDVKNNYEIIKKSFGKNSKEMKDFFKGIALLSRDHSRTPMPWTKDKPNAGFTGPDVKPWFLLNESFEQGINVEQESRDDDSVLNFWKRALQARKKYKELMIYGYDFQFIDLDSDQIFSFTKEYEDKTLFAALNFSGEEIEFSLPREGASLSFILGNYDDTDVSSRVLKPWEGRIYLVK
# Protocol: All enzymes and para-nitrophenyl substrates were purchased from Sigma. Enzymes were assayed at 27 °C in citric acid (0.1 M)/disodium hydrogen phosphate (0.2 M) buffers at the optimum pH for the enzyme. The incubation mixture consisted of […] of 1 mg/mL aqueous solution of extract and […] of the appropriate 5 μM para-nitrophenyl substrate made up in buffer at the optimum pH for the enzyme. […] Assays were carried out in triplicate, and the values given are means of the three replicates per assay. All reactions were run in water.
# [12] = test system: N-acetyl-β-D-hexosaminidase (rat intestine); assay: Glycosidase inhibition (Table 3 panel); assay type: biochemical; conditions: 1 mg/mL aqueous solution; run in water
# Protocol: (§2) All enzymes and para-nitrophenyl substrates were purchased from Sigma. Enzymes were assayed at 27 °C in citric acid (0.1 M)/disodium hydrogen phosphate (0.2 M) buffers at the optimum pH for the enzyme. The incubation mixture consisted of […] of 1 mg/mL aqueous solution of extract and […] of the appropriate […] para-nitrophenyl substrate made up in buffer at the optimum pH for the enzyme. The reactions were stopped by addition of […] 0.4 M glycine (pH 10.4) during the exponential phase of the reaction, which had been determined at the beginning using uninhibited assays in which water replaced the inhibitor. Final absorbances were read at 405 nm using a Versamax microplate reader (Molecular Devices, Wokingham, UK). Assays were carried out in triplicate, and the values given are means of the three replicates per assay. All reactions were run in water.
# [13] = test system: α-D-glucosidase (rat intestine); assay: Glycosidase inhibition (Table 3 panel); assay type: biochemical; conditions: 1 mg/mL aqueous solution; run in water
# Protocol: as §2
# β-D-glucosidase (almond) = assay: Glycosidase inhibition (Table 3 panel); assay type: biochemical; conditions: 1 mg/mL aqueous solution; run in water
# Protocol: as §2
# [14] = test system: β-D-glucuronidase (bovine liver); assay: Glycosidase inhibition (Table 3 panel); assay type: biochemical; conditions: 1 mg/mL aqueous solution; run in water
# Protocol: as §2
# [15] = Sample appearance on sample preparation in water; assay type: physicochemical; conditions: 1 mL of water was added to 1 mg solid
# [16] = test system: MCF10A (non-tumour derived normal breast cell line); assay: Cancer screening, MTT growth inhibition; assay type: cell-based; conditions: 72 h; for inhibition at 25 µM: read-out: DOSE SCREEN percentage (%) cell growth inhibition MCF10A Breast (normal); for GI50: read-out: DOSE RESPONSE GI50 MCF10A Breast (normal)
# [17] = Homo sapiens, MCF-10A, 25 µM of drug
Compound,inhibition % Trehalase Porcine Kidney ([1]; at 100 μM),inhibition % Trehalase Porcine Kidney ([1]; at 1000 μM),inhibition % α-D-Glucosidase Human Lysosome [2],inhibition % α-D-Glucosidase Rat Intestinal Maltase ([3]; at 100 μM),inhibition % α-L-Fucosidase Bovine Kidney [4],inhibition % α-L-Rhamnosidase P. decumbens ([5]; at 100 μM),inhibition at 100 µM ([7]; at 100 μM) [%],inhibition at 1000 µM ([7]; at 1000 μM) [%],inhibition % β-D-Glucuronidase Bovine Liver ([8]; at 100 μM),inhibition % β-D-Glucuronidase Bovine Liver ([8]; at 1000 μM),inhibition % β-D-Glucosidase Human Lysosome [9],inhibition % β-D-Galactosidase E. coli [10],inhibition % β-D-Glucanase T. Longibrachiatum [11],inhibition at 1000 µg/mL (stock) (α-D-glucosidase (yeast)) [%],Percentage inhibition N-Acetyl-β-D-Hexosaminidase Rat Intestine [12] [%],Percentage inhibition α-D-Glucosidase Rat Intestine [13] [%],Percentage inhibition β-D-Glucosidase Almond (β-D-glucosidase (almond)) [%],Percentage inhibition β-D-Glucuronidase Bovine Liver [14] [%],Sample Appearance [15],"inhibition at 25 µM [16, 17] [%]",other results
"OC[C@H](O)[C@@H]1[C@H](O)[C@H](O)CN1Cc1cccc(B(O)O)c1 [meta 4, N-(3-Methylphenylboronic acid)-1,4-dideoxy-1,4-imino-L-gulitol]",^cNI ^d(0.8%),^aNI ^b(3.4%),^cNI ^d(7.2%),^cNI ^d(22.8%),^aNI ^b(3.0%),^cNI ^d(8.3%),0,37.9,^cNI ^d(0%),^aNI ^b(14.7%),^cNI ^d(13.6%),^cNI ^d(4.9%),^cNI ^d(1.2%),23.5,−2.2,41.1,47.9,−2.7,In solution,14 ± 13,"IC50 ([3]; listed as of the 1000 μM series): 588 µM; inhibition at 100 µM ([6]; at 100 μM): 24.6%; GI50 ([16]; Homo sapiens, MCF-10A): > 50 µM"
"N-(3-Hydroxyphenyl)-1,4-dideoxy-1,4-imino-L-gulitol [meta 7]",^cNI ^d(0%),^aNI ^b(1.9%),^cNI ^d(0%),^cNI ^d(0%),^aNI ^b(2.1%),^cNI ^d(3.8%),–,–,^cNI ^d(1.2%),^aNI ^b(0%),^cNI ^d(9.9%),^cNI ^d(0%),^cNI ^d(0%),–,−2.5,−10.7,2.9,−3,In solution,–,inhibition % α-D-Glucosidase Rat Intestinal Maltase ([3]; at 1000 μM): ^aNI ^b(7.2%); inhibition % α-L-Rhamnosidase P. decumbens ([5]; at 1000 μM): ^aNI ^b(2.1%); inhibition % β-D-Galactosidase Bovine Liver ([6]; at 100 μM): ^cNI ^d(17.5%); inhibition % β-D-Galactosidase Bovine Liver ([6]; at 1000 μM): ^aNI ^b(8.1%); inhibition % β-D-Glucosidase Bovine Liver ([7]; at 100 μM): ^cNI ^d(0%); inhibition % β-D-Glucosidase Bovine Liver ([7]; at 1000 μM): ^aNI ^b(13.6%); Percentage inhibition α-D-Glucosidase Yeast (α-D-glucosidase (yeast)): 19.5%; DOSE SCREEN percentage (%) cell growth inhibition MCF10A Breast (normal) ([16]; 25 µM of drug): 31 ± 16%; GI50 [16]: 43 ± 17 µM
"OC[C@H](O)[C@@H]1[C@H](O)[C@H](O)CN1Cc1ccccc1B(O)O [ortho 4, N-(2-Methylphenylboronic acid)-1,4-dideoxy-1,4-imino-L-gulitol]",^cNI ^d(0%),^aNI ^b(0%),^cNI ^d(2.2%),^cNI ^d(0%),^aNI ^b(1.3%),^cNI ^d(4.9%),3.3,25.7,^cNI ^d(0%),^aNI ^b(0.9%),^cNI ^d(0%),^cNI ^d(14%),^cNI ^d(0%),-6.7,−0.2,17.4,49.8,2.2,In solution,8 ± 4,"inhibition % α-L-Rhamnosidase P. decumbens ([5]; at 1000 μM): ^aNI ^b(9.5%); inhibition at 100 µM ([6]; at 100 μM): 3.3%; GI50 ([16]; Homo sapiens, MCF-10A): > 50 µM"
"CC1(C)O[C@H]2O[C@H]3[C@@H]([C@H]2O1)N(Cc1ccccc1B1OC(C)(C)C(C)(C)O1)C[C@H]3O [ortho 2, N-(2-Methylphenylboronic acid pinacol ester)-3,6-dideoxy-3,6-imino-1,2-O-isopropylidene-α-D-gulofuranose]",^cNI ^d(5.6%),^aNI ^b(1.8%),^cNI ^d(3.3%),^cNI ^d(15.5%),^aNI ^b(7.8%),^cNI ^d(1.5%),4.9,19.7,^cNI ^d(2.2%),^aNI ^b(8.4%),^cNI ^d(5.6%),^cNI ^d(8.8%),^cNI ^d(21%),-2,13.8,−6.7,73.3,−1.8,In solution,9 ± 4,"inhibition % α-D-Glucosidase Rat Intestinal Maltase ([3]; at 1000 μM): ^aNI ^b(0%); inhibition % α-L-Rhamnosidase P. decumbens ([5]; at 1000 μM): ^aNI ^b(2.0%); inhibition at 1000 µM ([6]; at 1000 μM): 21.8%; GI50 ([16]; Homo sapiens, MCF-10A): > 50 µM"
